“And” between values parts separate entries of the source, which are not always exact repeats. Equal values may be shown once. Where a name gives a salt, the structure may show the parent alone. Read-outs that look alike come from different tables or passages of the source.
Key:
AMO-1 = test: Antiproliferation assay (Assay 7), AMO-1; format: cell-based; details: CellTiter-Glo, several values per example
Procedure, shortened: (§1)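 Luminescent ATP-based viability (CellTiter-Glo) measured after 72 hours of compound treatment at 37° C, alongside a time-zero plate read on the day of plating.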

SUDHL5 [1] = test: Induction of caspase-3/7 activity (Assay 4), SUDHL5; format: cell-based; details: caspase-3/7 induction, median
Procedure, shortened: (§2)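 Caspase-3/7 activity measured by Caspase-Glo 3/7 luminescence in DLBCL cells after 3 h compound treatment at 37 °C. Medium-only background subtracted. EC50 fitted with C0 fixed at 1 and top set to the reference compound's plateau/max induction.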

BCL-2 = BCL-2 (Homo sapiens (Human), UniProt P10415); test: Protein-protein interaction assay BCL-2/Bad BH3 peptide (BCL-2 assay, TR-FRET); format: binding; details: His-BCL-2 / Bad BH3 peptide, median
Chain of BCL-2 (P10415 other isoform, or with tags, fused parts or gaps): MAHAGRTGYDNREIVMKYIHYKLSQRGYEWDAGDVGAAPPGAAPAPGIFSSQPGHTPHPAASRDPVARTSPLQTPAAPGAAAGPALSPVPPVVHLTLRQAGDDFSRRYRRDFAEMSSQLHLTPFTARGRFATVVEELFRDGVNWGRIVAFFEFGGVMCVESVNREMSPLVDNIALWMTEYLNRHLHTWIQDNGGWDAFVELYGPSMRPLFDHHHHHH
Procedure, shortened: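 His-BCL-2 (1-211, E. coli) at 1 nM preincubated 10 min at 22 °C with compound (11 concentrations, 0.1 nM-20 μM, duplicates), then 1 nM biotinylated Bad BH3 peptide added. After 1 h at 22 °C plus overnight at 4 °C, TR-FRET 665/620 ratio normalised to DMSO and no-BCL-2 controls, IC50 from 4-parameter fit.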

SUDHL5 [2] = test: Induction of cytotoxicity (Assay 6), SUDHL5; details: read-out: Cytotox SUDHL5 [M] (median) IC50, CellTiter-Glo, 5 hours, SUDHL5
SUDHL5 [3] = test: Antiproliferation assay (Assay 7), SUDHL5; format: cell-based; details: CellTiter-Glo, median, read-out: Antiproli SUDHL5 [M] (median) IC50
Procedure, shortened: as §1

SUDHL10 [4] = test: Induction of cytotoxicity (Assay 6), SUDHL10; details: read-out: Cytotox SUDHL10 [M] (median) IC50, CellTiter-Glo, 5 hours, SUDHL10
SUDHL10 [5] = test: Induction of caspase-3/7 activity (Assay 4), SUDHL10; format: cell-based; details: caspase-3/7 induction, median
Procedure, shortened: as §2

[6] = 72 hours, read-out: Antiproli AMO-1 [M] IC50
[7] = Homo sapiens, AMO1, 72 h, read-out: Antiproli AMO-1 [M] IC50

Row | Structure (SMILES) | EC50 (SUDHL5 [1]; Homo sapiens, SU-DHL-5, 3 h) [nM] | IC50 (BCL-2) | IC50 (SUDHL5 [3]; Homo sapiens, SU-DHL-5, 72 h) [M] | EC50 (SUDHL10 [5]; Homo sapiens, SU-DHL10, 3 h) [nM] | EC50 (SUDHL5 [1]; 3 hours) [nM] | IC50 (SUDHL5 [3]; 72 hours) [M] | EC50 (SUDHL10 [5]; 3 hours) [nM] | IC50 (AMO-1; [6]) | IC50 (AMO-1; [7]) [M] | IC50 (SUDHL5 [2]; Homo sapiens, SU-DHL-5, 5 h) [M] | IC50 (SUDHL10 [4]; Homo sapiens, SU-DHL10, 5 h) [M] | IC50 (AMO-1; 72 hours, listed as 07, read-out: Antiproli AMO-1 [M] IC50) [M] | IC50 (SUDHL5 [2]) [M] | IC50 (SUDHL10 [4]) [M] | IC50 (AMO-1; 72 hours, listed as 08, read-out: Antiproli AMO-1 [M] IC50) [M]
1 | CCc1c2c(nn1C)CN(C)S(=O)(=O)CCCn1c(C(=O)O)c(CCCOc3cccc4ccccc34)c3ccc(F)c-2c31 (racemic) [Example 31, (rac)-12-Ethyl-13-fluoro-8,11-dimethyl-1-(3-(naphthalen-1-yloxy)propyl)-5,6,9,11-tetrahydro-4H,8H-pyrazolo[3′,4′:4,5][1]thia[2,8]diazacycloundecino[6,7,8-hi]indole-2-carboxylic acid 7,7-dioxide] | 800 | > 20000 nM | 5.3e-07 | 1900 |  |  |  | 3.9e-06 M | 4.2e-06 | 9.3e-07 | 1.9e-06 |  |  |  | 
2 | Cc1cc(OCCCc2c(C(=O)O)n3c4c(c(F)ccc24)-c2c(nn(C)c2C)CN(C)S(=O)(=O)CCC3)cc(C)c1Cl (racemic) [Example 28, (rac)-1-(3-(4-Chloro-3,5-dimethylphenoxy)propyl)-13-fluoro-8,11,12-trimethyl-5,6,9,11-tetrahydro-4H,8H-pyrazolo[3′,4′:4,5][1]thia[2,8]diazacycloundecino[6,7,8-hi]indole-2-carboxylic acid 7,7-dioxide] | 2000 | > 20000 nM | 1.2e-06 | 11000 |  |  |  |  | 1.2e-05 | 3.1e-06 | 8e-06 |  |  |  | 
3 | Cc1c2c(nn1C)CN(C)S(=O)(=O)CCCn1c(C(=O)O)c(CCCOc3cccc4c3CCC4)c3ccc(F)c-2c31 (racemic) [Example 27, (rac)-1-(3-((2,3-Dihydro-1H-inden-4-yl)oxy)propyl)-13-fluoro-8,11,12-trimethyl-5,6,9,11-tetrahydro-4H,8H-pyrazolo[3′,4′:4,5][1]thia[2,8]diazacycloundecino[6,7,8-hi]indole-2-carboxylic acid 7,7-dioxide] | 700 | > 20000 nM | 7.8e-07 | 2400 |  |  |  |  | 2.5e-06 | 8.7e-07 | 2.1e-06 |  |  |  | 
4 | Cc1c2c(nn1C)CN(C1CC1)S(=O)(=O)CCCn1c(C(=O)O)c(CCCOc3cccc4cc(F)ccc34)c3ccc(Cl)c-2c31 (single isomer, unassigned; enantiomer 1) [Example 42, (−)-4-chloro-14-cyclopropyl-7-{3-[(6-fluoro-1-naphthyl)oxy]propyl}-2,3-dimethyl-11,12,14,15-tetrahydro-2H,10H-pyrazolo[3′,4′:4,5][1,2,8]thiadiazacycloundecino[6,7,8-hi]indole-8-carboxylic acid 13,13-dioxide N-diethylamine salt (Enantiomer 1)] |  | 12000 nM |  |  | 190 | 2.7e-07 | 290 | 2.6e-07 M and 4.7e-07 M |  |  |  |  | 3e-07 | 3.5e-07 | 
5 | CCc1c2c(nn1C)CN(CCN1CCCCC1)S(=O)(=O)CCCn1c(C(=O)O)c(CCCOc3cccc4ccccc34)c3cccc-2c31 (racemic) [Example 14, (rac)-12-Ethyl-11-methyl-1-(3-(naphthalen-1-yloxy)propyl)-8-(2-(piperidin-1-yl)ethyl)-4,5,6,8,9,11-hexahydropyrazolo[3′,4′:4,5][1,2,8]thiadiazacycloundecino[6,7,8-hi]indole-2-carboxylic acid 7,7-dioxide 2,2,2-trifluoroacetic acid salt] | 4600 | > 20000 nM | 3.3e-06 | 9200 |  |  |  | 1.7e-05 M | 1.9e-05 | 5.2e-06 | 8.5e-06 |  |  |  | 

The next lines start with results.

Row | EC50 (SUDHL5 [1]; Homo sapiens, SU-DHL-5, 3 h) [nM] | IC50 (BCL-2) | IC50 (SUDHL5 [3]; Homo sapiens, SU-DHL-5, 72 h) [M] | EC50 (SUDHL10 [5]; Homo sapiens, SU-DHL10, 3 h) [nM] | EC50 (SUDHL5 [1]; 3 hours) [nM] | IC50 (SUDHL5 [3]; 72 hours) [M] | EC50 (SUDHL10 [5]; 3 hours) [nM] | Structure (SMILES) | IC50 (AMO-1; [6]) | IC50 (AMO-1; [7]) [M] | IC50 (SUDHL5 [2]; Homo sapiens, SU-DHL-5, 5 h) [M] | IC50 (SUDHL10 [4]; Homo sapiens, SU-DHL10, 5 h) [M] | IC50 (AMO-1; 72 hours, listed as 07, read-out: Antiproli AMO-1 [M] IC50) [M] | IC50 (SUDHL5 [2]) [M] | IC50 (SUDHL10 [4]) [M] | IC50 (AMO-1; 72 hours, listed as 08, read-out: Antiproli AMO-1 [M] IC50) [M]
6 | 1800 | > 20000 nM | 1.9e-06 | 3300 |  |  |  | CCc1c2c(nn1C)CN(C)S(=O)(=O)CCCn1c(C(=O)O)c(CCCOc3cc(C)c(Cl)c(C)c3)c3ccc(Cl)c-2c31 [Example 22, (rac)-13-Chloro-1-(3-(4-chloro-3,5-dimethylphenoxy)propyl)-12-ethyl-8,11-dimethyl-4,5,6,8,9,11-hexahydropyrazolo[3′,4′:4,5][1,2,8]thiadiazacycloundecino[6,7,8-hi]indole-2-carboxylic acid 7,7-dioxide] |  | 2.6e-06 | 2.1e-06 | 3.6e-06 |  |  |  | 
7 | 510 | 18000 nM | 2.2e-07 | 740 |  |  |  | CCc1c2c(nn1C)CN(C)S(=O)(=O)CCCn1c(C(=O)O)c(CCCOc3cccc4cc(F)ccc34)c3ccc(F)c-2c31 (racemic) [Example 7, (rac)-12-Ethyl-13-fluoro-1-(3-((6-fluoronaphthalen-1-yl)oxy)propyl)-8,11-dimethyl-5,6,9,11-tetrahydro-4H,8H-pyrazolo[3′,4′:4,5][1]thia[2,8]diazacycloundecino[6,7,8-hi]indole-2-carboxylic acid 7,7-dioxide] |  | 2e-06 | 4.7e-07 | 9.1e-07 | 2.2e-06 |  |  | 
8 |  | > 20000 nM |  |  | 20000 | 7.8e-06 | 22000 | Cc1c2c(nn1C)CN(C)S(=O)(=O)CCCn1c(C(=O)O)c(CCCOc3cccc4cc(F)ccc34)c3ccc(F)c-2c31 (single isomer, unassigned; enantiomer 1) [Example 38, (−)-4-fluoro-7-{3-[(6-fluoronaphthalen-1-yl)oxy]propyl}-2,3,14-trimethyl-13,13-dioxo-10,11,12,13,14,15-hexahydro-2H-13lambda^6-pyrazolo[3′,4′:4,5][1,2,8]thiadiazacycloundecino-[6,7,8-hi]indole-8-carboxylic acid (Enantiomer 1)] | 2.9e-05 M |  |  |  |  | 1.7e-05 | 2.1e-05 | 
9 |  | > 20000 nM |  |  | 27000 | 2e-05 | > 33000 | Cc1c2c(nn1C)CNS(=O)(=O)CCCn1c(C(=O)O)c(CCCOc3cccc4cc(F)ccc34)c3ccc(Cl)c-2c31 (single isomer, unassigned; enantiomer 2) [Example 52, 4-chloro-7-{3-[(6-fluoronaphthalen-1-yl)oxy]propyl}-2,3-dimethyl-13,13-dioxo-10,11,12,13,14,15-hexahydro-2H-13lambda^6-pyrazolo[3′,4′:4,5][1,2,8]thiadiazacycloundecino[6,7,8-hi]indole-8-carboxylic acid (Enantiomer 2)] | 1.1e-05 M |  |  |  |  | 1.7e-05 | 1.7e-05 | 
10 | 670 | > 20000 nM and 51000 nM and 46000 nM | 4.1e-07 | 1500 |  |  |  | Cc1c2c(nn1C)CN(C)S(=O)(=O)CCCn1c(C(=O)O)c(CCCOc3cccc4cc(F)ccc34)c3ccc(F)c-2c31 (racemic) [Example 25, (rac)-13-Fluoro-1-(3-((6-fluoronaphthalen-1-yl)oxy)propyl)-8,11,12-trimethyl-5,6,9,11-tetrahydro-4H,8H-pyrazolo[3′,4′:4,5][1]thia[2,8]diazacycloundecino[6,7,8-hi]indole-2-carboxylic acid 7,7-dioxide] |  | 4.1e-06 | 7.5e-07 | 2e-06 |  |  |  | 
11 |  | > 20000 nM |  |  | 580 | 7.6e-07 | 1000 | CCc1c2c(nn1C)CN(C)S(=O)(=O)CCCn1c(C(=O)O)c(CCCOc3cccc4cc(F)ccc34)c3ccc(F)c-2c31 (single isomer, unassigned; enantiomer 1) [Example 8, (+)-3-Ethyl-4-fluoro-7-{3-[(6-fluoronaphthalen-1-yl)oxy]propyl}-2,14-dimethyl-13,13-dioxo-10,11,12,13,14,15-hexahydro-2H-13λ^6-pyrazolo[3′,4′:4,5][1,2,8]thiadiazacycloundecino-[6,7,8-hi]indole-8-carboxylic acid (Enantiomer 1)] |  |  |  |  |  | 7.7e-07 | 1.1e-06 | 1.5e-06
12 | 860 | > 20000 nM | 5.2e-07 | 2100 |  |  |  | CCc1c2c(nn1C)CN(C)S(=O)(=O)CCCn1c(C(=O)O)c(CCCOc3cccc4ccccc34)c3ccc(Cl)c-2c31 [Example 20, (rac)-13-Chloro-12-ethyl-8,11-dimethyl-1-(3-(naphthalen-1-yloxy)propyl)-5,6,9,11-tetrahydro-4H,8H-pyrazolo[3′,4′:4,5][1]thia[2,8]diazacycloundecino[6,7,8-hi]indole-2-carboxylic acid 7,7-dioxide] |  | 2.8e-06 | 9.1e-07 | 1.7e-06 |  |  |  | 
